Like-named read-outs stand apart in the source and are kept apart here.
How the values were obtained:
rat P2X7 (rP2X7) = target: T1, rat P2X7 (rP2X7) (Rattus norvegicus, UniProt Q64663); test: fura-2 intracellular calcium assay on HEK-293 stable cell line expressing rat P2X7; assay type: cell-based; settings: Rat P2X7 (Table 1), n = 3
T1 construct: expressed in transfected cells
T1 sequence (Q64663 1-595): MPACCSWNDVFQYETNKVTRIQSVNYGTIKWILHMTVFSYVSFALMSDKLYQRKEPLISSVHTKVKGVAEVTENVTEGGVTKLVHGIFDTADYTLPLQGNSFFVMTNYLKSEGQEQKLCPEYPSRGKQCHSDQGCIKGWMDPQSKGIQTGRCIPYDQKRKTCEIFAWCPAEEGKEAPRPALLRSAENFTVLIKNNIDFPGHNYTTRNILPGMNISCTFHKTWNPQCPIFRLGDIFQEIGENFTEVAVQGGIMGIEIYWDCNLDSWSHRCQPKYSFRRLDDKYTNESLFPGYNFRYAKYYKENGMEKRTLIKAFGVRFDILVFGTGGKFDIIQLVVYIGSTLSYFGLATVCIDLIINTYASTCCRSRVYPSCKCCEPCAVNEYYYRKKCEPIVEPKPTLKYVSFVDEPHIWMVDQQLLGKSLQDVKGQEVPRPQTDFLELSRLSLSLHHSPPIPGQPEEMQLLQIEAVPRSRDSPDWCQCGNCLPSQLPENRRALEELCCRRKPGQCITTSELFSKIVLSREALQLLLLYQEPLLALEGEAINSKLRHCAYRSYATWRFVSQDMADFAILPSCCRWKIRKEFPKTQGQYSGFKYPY
Method: (§1) Genetically edited HEK-293 cells lacking P2Y2 receptors were used to generate stable cell lines expressing human P2X7 (hP2X7), mouse P2X7 (mP2X7), rat P2X7 (rP2X7), or mutants of the hP2X7 NAM site (F88A, M105A, and F103A). Transfection was performed using lipofectamine 2000 (Fisher Scientific), and cells were subjected to Geneticin (800 μg/mL) selection for 2–3 weeks. This was followed by single cell cloning by limiting dilution in 96-well plates. Individual clones were selected for further study based on ATP-induced TO-PRO-3 uptake on a BD Cytoflex flow cytometer. Cell lines were maintained in DMEM:F12 media supplemented with 10% fetal bovine serum (PanBiotech), penicillin and streptomycin (Fisher Scientific) and kept in a humidified incubator with 5% CO2. Stable P2X7-expressing cells were kept under Geneticin selection at a concentration of 400 μg/mL. Passaging was performed twice weekly using 0.25% Trypsin-EDTA (Fisher Scientific).
(§2) P2X7 responses were measured by monitoring intracellular calcium responses using fura-2AM loaded cells. Cells were plated at 2–2.5 × 10^4 cells/well the day before experiments in 96-well plates (NUNC) coated with 50 μg/mL poly-D-lysine (Merck Millipore). A loading buffer containing 2 μM fura-2AM (HelloBio) and 250 μM sulfinpyrazone (Merck Millipore) in a low divalent buffer (145 mM NaCl, 5 mM KCl, 0.2 mM CaCl2, 10 mM HEPES, 13 mM glucose, pH 7.3) was added to cells for 45 min at 37 °C. After loading, the buffer was removed and replaced with calcium-containing extracellular solution (145 mM NaCl, 5 mM KCl, 2 mM CaCl2, 10 mM HEPES, 13 mM glucose, pH 7.3). Responses were measured using a Flexstation 3 plate reader (Molecular Devices) with dual excitation wavelengths of 340 and 380 nm and single emission wavelength of 510 nm. The sample interval was 3.5 s, and each well was recorded for 180 s. Fura-2 ratios were calculated in Softmax Pro v5.4; zero baseline was applied, and responses were measured as normalized area under the curve (AUC). Dose inhibition curves were plotted using GraphPad Prism v6 nonlinear regression (three parameter fit) and log IC50 values reported.

F88A hP2X7 = target: T2, F88A hP2X7 (Homo sapiens, UniProt Q99572, F88A); test: fura-2 intracellular calcium assay on HEK-293 stable cell line expressing NAM-site mutant F88A hP2X7; assay type: cell-based; settings: for IC50: n = 3
T2 sequence (Q99572 1-595 F88A): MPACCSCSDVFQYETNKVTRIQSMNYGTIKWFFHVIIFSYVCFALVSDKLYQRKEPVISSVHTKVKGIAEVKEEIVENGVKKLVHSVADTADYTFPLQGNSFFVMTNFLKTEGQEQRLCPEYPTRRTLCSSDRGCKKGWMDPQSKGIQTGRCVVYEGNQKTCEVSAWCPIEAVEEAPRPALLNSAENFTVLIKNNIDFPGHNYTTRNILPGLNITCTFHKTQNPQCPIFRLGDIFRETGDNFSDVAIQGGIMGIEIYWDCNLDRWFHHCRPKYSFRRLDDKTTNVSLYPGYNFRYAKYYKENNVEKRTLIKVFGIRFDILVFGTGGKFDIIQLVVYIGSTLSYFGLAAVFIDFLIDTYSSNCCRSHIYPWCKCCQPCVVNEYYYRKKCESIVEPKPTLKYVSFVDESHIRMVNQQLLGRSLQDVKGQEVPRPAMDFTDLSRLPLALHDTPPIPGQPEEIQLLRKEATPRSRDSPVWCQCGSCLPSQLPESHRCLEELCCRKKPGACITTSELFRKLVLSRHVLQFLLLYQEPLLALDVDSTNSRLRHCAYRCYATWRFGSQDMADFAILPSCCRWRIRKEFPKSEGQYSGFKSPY
Method: as §1, with “Transfection” for “Genetically edited HEK-293 cells lacking P2Y2 receptors were used to generate stable cell lines expressing human P2X7 (hP2X7), mouse P2X7 (mP2X7), rat P2X7 (rP2X7), or mutants of the hP2X7 NAM site (F88A, M105A, and F103A). Transfection”
as §2

`O=C(NCC1(N2CCN(c3ccccc3)CC2)CCOCC1)c1cccnc1Sc1ccccc1` [JNJ-47965567] gave an IC50 (rat P2X7 (rP2X7); log IC50 ± standard error, read-out: Log IC50 (converted)) of 0.0174 µM, an IC50 (rat P2X7 (rP2X7); mean in brackets, read-out: mean IC50) of 0.0176 µM and an IC50 (F88A hP2X7; F88A hP2X7, agonist ATP, log IC50 ± standard error, read-out: Log IC50 (converted)) of 0.121 µM. The IC50 (F88A hP2X7; F88A hP2X7, agonist ATP, mean in brackets, read-out: mean IC50) was 0.125 µM, the IC50 (F88A hP2X7; F88A hP2X7, agonist BzATP, mean in brackets, read-out: mean IC50) was 0.0538 µM and the “increase in IC50 at F88A relative to hP2X7” value (F88A hP2X7; F88A hP2X7 vs hP2X7) was 10 fold.
